This is an account of results in paper PMC6474902, “Examination of novel 4-aminoquinoline derivatives designed and synthesized by a hybrid pharmacophore approach to enhance their anticancer activities” (Scientific Reports, 2019).

Holding throughout (assay type): cell-based, human
Assay [1] deals with MCF7 cells. Kind of assay: LysoTracker Red staining of lysosomal volume. The note with it: 5 μM, 48 h. On the procedure: Since the structure of compound 13 contains the main scaffold of CQ, we examined whether cells treated with compound 13 also results an increase in the lysosomal volume.
Figure 7 Lysosomal volumes are increased in MCF7 cells treated with compound 13. Lysomes were visualized by treating MCF7 cells with lysoTracker Red for 48 h in the absence (Sham) or presence of 5 μM compound 13. The nuclei of cells in rows a and c were visualized by staining with DRAQ5. Note that rows a, c and e are enlarged images.
LysoTracker Red sDND-99 staining was carried out as recommended by the manufacturer (Molecular Probes, Eugene, OR). Briefly, cells grown on a cover slip were incubated in 50 nM LysoTracker Red DND-99 in serum-free RPMI-1640 medium for 30 min and then rinsed once with serum-free medium. The cells were washed three times with ice-cold medium, incubated in fresh medium for 45 min at 37 °C, and then washed once with fresh medium. Subsequently, the cells were examined by fluorescence microscopy using two filters (for green and red images) sequentially. Merging the two color images was done using Northern Eclipse software.

The subject of assay [2] is Cdk1, Cdc25C, Wee1 in HeLa S3 cells. Briefly: Western blot of G2-M-G1 regulators after nocodazole release. The note with it: 10 µM. On the procedure: To gain a better understanding about the molecular mechanism of compound 13 on antigrowth/cell-killing, HeLa S3 cells synchronized at G1/S by double thymidine treatment (DT) (Fig. 4b) were released into complete medium for 6 h, at which time most cells are at late S-G2/M phase (Fig. 4c). The cells were then maintained for additional 6 h in the absence (Fig. 4d) or presence of 10 μM compound 13 (Fig. 4e). More than 62% of cells progressed into G1 of the next cell cycle in the sham control (Fig. 4d). […] Since the level of securin is low, cell cycle is likely arrested prior to the chromatin separation stage in the presence of compound 13.
Figure 5 Compound 13-treated cells are arrested at prometa-metaphase through the inactivation of Cdk1. HeLa S3 cells were synchronized at G2/M phase by incubating in 50 ng/ml nocodazole (noco) for 18 h. The cells were then released into complete medium at time 0 h in the absence (Sham) or presence of 10 µM compound 13. Samples were then taken at the indicated times post-nocodazole. […] (b) Cdk1 may be inactivated by the combination of a high level of Wee1 kinase and inactivation of Cdc25C. The relative intensity of band signals are quantified by densitometry and presented the results in Supplementary Fig. S3.
Western blot and densitometry were carried out as we described previously[29],[30].
Background: Immunoblotting shows a protein as a band on a membrane.

A further assay has as its system HeLa S3 cells. Briefly: Mitotic spindle/centrosome morphology by confocal microscopy. The note with it: 5 μM, 6 h after nocodazole synchronization. The source says: To gain further insight into the cellular mechanism involved in the cell cycle arrest, we examined cell morphology in the context of mitotic progress. […] Many of these cells are apparently arrested at the spindle checkpoint stage. Even those cells undergo cell division (probably after prolonged arrest) often segregated with uneven cell sizes (arrows in Fig. 6a).
Figure 6 Compound 13 causes the formation of multiple spindle poles and uneven segregation. (a) HeLa S3 cells were synchronized at G2/M by nocodazole, followed by incubation for 6 h in drug-free medium in the absence (Sham control) or presence of 5 μM of compound 13. Note the presence of uneven cell sizes (arrows) which were likely generated as a result of nondisjuctional chromosome segregation during mitosis. […] In contrast, the untreated control sample contains very few cells with abnormal spindles.
All immunocytochemistry experiments were visualized by confocal microscopy using a Zeiss 510 Meta laser scanning microscope (Carl Zeiss) equipped with a 63× objective lens. Three lasers were utilized for excitation with the following band pass filter settings used for detection: Argon 488 nm (band pass 505–530), HeNe 543 nm (long pass 560) and 633 nm (long pass 650). All images were captured and analyzed using LSM 510 software included with the microscope (LSM Image Examiner, Carl Zeiss).

Assay [3] deals with MCF7 cells. Briefly: Cell killing by flow cytometry, asynchronous cells. The note with it: 2.7 μM, 48 h.
Method: Asynchronous MCF7 cells were incubated for 48 h in the absence (Sham control) or presence of compound 13 at 2.7 or 8.0 µM.
Cells (2.0 × 10^6) were harvested by centrifugation at 1,000 rpm on a bench-top centrifuge for 5 min, followed by fixation with ice-cold ethanol (70%) for 30 min to overnight at −20 °C[13]. The ethanol was then removed by centrifugation, and cells were resuspended in 1 × PBS solution, followed by centrifuge. The cell pellet was than stained with propidium iodide (PI) master mix (100 μg/mL RNase A, 100 μg/mL PI, 0.3% Nonidet P-40 and 0.1% sodium citrate in distilled water) for 30 min at 37 °C. DNA content was measured using a Beckmann Coulter Cytomics FC500 (Beckman Coulter, Fullerton, CA), and the proportion of cell populations in G0/G1, S, and G2/M phases of cell cycle was calculated on the basis of DNA distribution histograms using CXP software.
Another assay concerns HeLa. Kind of assay: Combination with bortezomib, cell death. The conditions noted are these: 48 h post-treatment; BTZ 6 nM, compound 13 0.75 µM, alone or combined.

Values joined by “and” are separate entries in the source; they are usually repeats but may differ in a detail not shown here. Identical values can stand only once.

In the case of `O=[N+]([O-])c1ccc(S(=O)(=O)N2CCN(c3ccnc4cc(Cl)ccc34)CC2)c([N+](=O)[O-])c1` [Compound 13, 7-Chloro-4-(4-(2,4-dinitrophenylsulfonyl)piperazin-1-yl)quinoline], the lysosomal volume entry with MCF7 cells [1] is recorded as “substantial increase in lysosomal volume”. Also, in assay [2] (2–3 h post-nocodazole), the “Cdc25C phosphatase activity status” value was “almost completely inactive”; the “phosphorylation of Thr161 and Tyr15 on Cdk1” value was “highly phosphorylated”. The Wee1 activity status result in assay [2] (3 h post-nocodazole) is recorded as “very active”. For the same compound, the “mitotic cells with multiple centrosomes / multiple spindle phenotypes” value in the assay on HeLa S3 cells was 44% and 44.4%. Also, the cell killing entry in the assay on MCF7 cells [3] is “effectively killed MCF7 cells”. Moreover, the cell death entry with HeLa was “neither 6 nM BTZ nor 0.75 µM of compound 13 resulted in substantial HeLa cell death”.
